Assay [1] relates to human myeloma RPMI8226 tumor xenografts. As to the kind of experiment: RPMI8226 xenograft efficacy model. It is filed as in vivo, SCID mice. To be noted: 0.75 mg/kg IV twice weekly. The protocol: SCID mice are evaluated for their ability to support implantation of desired tumor cells in support of model development and characterization. Mice are injected intravenously […] or implanted either subcutaneously (SC) or intraperitoneally (IP). To generate a relevant animal model mimicking human disease, it is desirable that all three approaches are evaluated for improved implantation rates and relevant disease progression, as is well known in the art. SC injections provide an easy way to measure tumor growth and efficacy, and IV and IP injections represent a more physiologically relevant model of human tumor spread. SC injections are given primarily in the flank, while IV injections are administered in the tail vein. Mice are manually restrained for SC and IP injections, and a Broome mouse restrainer is used for IV injections.
SCID mice are implanted with tumor cells (human RPMI8226 myeloma cells) via IP, IV or SC routes based on the results from the xenograft model development studies (above). Mice are treated with compound or mock treated (vehicle) for a period of up to 4-5 weeks. Compound administration can be via IV, IP, PO or SC routes. […]
Mice are monitored for tumor growth, regression and general health. […] Tumor growth is measured by calipers, ultrasound, or by abdominal lavage. Biomarkers in the blood or tumor can evaluated (primarily XBP-1 splicing). […]

Assay [2] relates to XBP-1 splicing in liver and kidney. Kind of assay: XBP-1 splicing inhibition in livers and kidneys of mice after tunicamycin. It is filed as in vivo, CB17 SCID mice. The following applies: 1 mg/kg IP, relative to PBS treated mice. An excerpt:
The preclinical validation strategy employs a set of animal models representing normal tissues under chemical stress and multiple myeloma xenography. The normal animal model is employed as a surrogate model where dose-related on-target activity of compounds can be confirmed in tissues sensitive to standard UPR inducing agents such as tunicamycin (Wu et al., Dev Cell. 2007 September; 13 (1d):351-64). […] Upon induction with tunicamycin, tissues induce active XBP-1 mRNA, splicing, and this activity is suppressed by IRE-1α inhibitors. This on-target ER stress animal model is a useful screening and early pharmacokinetic tool.
CB17 SCID mice were treated with 1 mg/kg tunicamycin by intraperitoneal (IP) injection at time 0 (T=0). Two hours later, compound A formulated in 10% hydroxy beta propyl cyclo dextran HBPCD was administered by IP injection. Doses were 50 mg/kg, 25 mg/kg and 10 mg/kg (4 mice in each group). Mice were sacrificed two hours later (4 hours from T=0), and the designated organs were harvested (FIG. 3A).
RT-PCR analysis was performed using murine-specific XBP-1 primers from total RNA harvested from specified organs. […] Each lane represents an individual mouse where RNA was harvested and RT-PCR was performed. Method of RNA extraction and RT-PCR analysis is described in Volkmann et al., J. Biol. Chem. 286, 12743-55, 2011. […]

Assay [3] relates to XBP-1 splicing in RPMI 8226 cells. Kind of assay: Inhibition of thapsigargin-induced endogenous XBP-1 splicing in RPMI 8226 cells (RT-PCR). The class given is cell-based, human. The following applies: 300 nM, 2 hours. As for the experimental part:
PCR amplification products were run on a 4% agarose gel and stained with ethidium bromide. The inverse image is shown.
Cell Culture. RPMI 8226 cells were grown in monolayer culture using Dulbecco's Modified Eagle Medium (DMEM) supplemented with 10% fetal calf serum (FCS) at 37° C. and 5% CO2. Compounds were kept as 10 mM stock in DMSO at −20° C. and diluted in medium to 10 μM, Thapsigargin (Tg) was resuspended in DMSO and diluted in medium,
RT-qPCR. Procedures for measuring XBP-1s and XBP-1u mRNAs have been described previously (Volkmann et al., J. Biol. Chem. 286, 12743-55, 2011). Briefly, total RNA was harvested from cells or tissue using TRIZOL® (Invitrogen) according to the manufacture's procedures. After ethanol, precipitation and resuspension of the RNA, RIBOGREEN® (Invitrogen) was used to quantify the yield—and normalize the RNA concentration in the source tube containing isolated RNA. RT-PCR was performed by oligo dT priming, […]® II (Invitrogen) and reverse transcription using the […] GOLD® Kit (Applied Biosystems) according to the manufacturer's protocols. Primers for human XBP-1 were
All DNA oligos were purchased from IDT DNA Technologies. PCR reactions were run on a Bio-Rad PTC-100® 96-well thermocycler; heating at 94° C. for 30 seconds, annealing at 58° C. for 30 seconds polymerizing at 72° C. for 30 seconds for 35 cycles. […]

Assay [4] addresses human IRE-1α (GST-IRE-1α) (Homo sapiens (Human), UniProt O75460). Kind of assay: IRE-1α assay in vitro: cleavage of Cy5/BHQ2-labelled mini-XBP-1 mRNA stem-loop substrate. The class given is biochemical. The following applies: average IC50 for inhibition of IRE-1α. As for the experimental part: In some embodiments IRE-la inhibitor compounds form a complex with IRE-1α. […] Other substrates also can be used to detect cleavage. See US 2007/0105123.
A fusion protein comprising glutathione S transferase (GST) and human IRE-1α (GST-IRE-1α) obtained from a 500 ml baculovirus-infected insect cell culture can be used to measure IRE-1α activity in vitro.
Five μl of a reaction mixture comprising IX reaction buffer (5× reaction buffer is 100 mM Hepes pH 7.5, 250 mM KOAc, 2.5 mM MgCl2), 3 mM DTT, and 0.4% polyethylene glycol water is added to each well of 384 well plates. Twenty-five nanoliters of a 1 mM test compound solution are added to test wells. Three μl of a […] IRE-1α preparation are added to each test well and to positive control wells (final concentration 5.82 ng/well). Negative control wells contain only reaction mixture and test compound.
After spinning the plates at 1200 rpm for 30 seconds, 3 μl of an IRE-1α human mini-XBP-1 mRNA stem-loop substrate 5′-[…]-3′ (SEQ ID NO:1), labeled with the fluorescent dye Cy5 at the 5′ end and Black Hole Quencher 2 (BH2) at the 3′ end, are added to each well of a control plate. The plates are again spun at 1200 rpm for 30 seconds. Final concentrations for the assay are: 63 nM IRE-1α substrate, 5.82 ng IRE-1α protein, and 2.5 μM test compound.
The plates are covered with lids and incubated for one hour at 30° C. The plates are then transferred to an ACQUEST™ microplate reader. Data is analyzed using data analysis software, and the percent activity of IRE-1α is calculated.
IC50 for inhibition of IRE-1α of compounds identified in Table 1 was measured as described in EXAMPLE 35.

For assay [5], the system named is IRE-1α-mediated XBP-1 splicing in human myeloma MM.1s cells. As to the kind of experiment: Cellular EC50: endogenous XBP-1 splicing in myeloma cells by RT-PCR (DTT stress). To be noted: MM1.S, average cellular EC50, XBP-1 splicing in myeloma cells, read-out: EC50_av. It is filed as cell-based. In outline:
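MM.1s myeloma cells were pretreated with compound 1.25 h, then stressed with 2 mM DTT for 45 min more (2 h total). XBP-1 was amplified by RT-PCR from total RNA with intron-flanking primers; ED50 taken at 50% spliced XBP-1s of total XBP-1.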

Bounds are passed on as bounds.

Chain of human IRE-1α (GST-IRE-1α) (O75460 19-977): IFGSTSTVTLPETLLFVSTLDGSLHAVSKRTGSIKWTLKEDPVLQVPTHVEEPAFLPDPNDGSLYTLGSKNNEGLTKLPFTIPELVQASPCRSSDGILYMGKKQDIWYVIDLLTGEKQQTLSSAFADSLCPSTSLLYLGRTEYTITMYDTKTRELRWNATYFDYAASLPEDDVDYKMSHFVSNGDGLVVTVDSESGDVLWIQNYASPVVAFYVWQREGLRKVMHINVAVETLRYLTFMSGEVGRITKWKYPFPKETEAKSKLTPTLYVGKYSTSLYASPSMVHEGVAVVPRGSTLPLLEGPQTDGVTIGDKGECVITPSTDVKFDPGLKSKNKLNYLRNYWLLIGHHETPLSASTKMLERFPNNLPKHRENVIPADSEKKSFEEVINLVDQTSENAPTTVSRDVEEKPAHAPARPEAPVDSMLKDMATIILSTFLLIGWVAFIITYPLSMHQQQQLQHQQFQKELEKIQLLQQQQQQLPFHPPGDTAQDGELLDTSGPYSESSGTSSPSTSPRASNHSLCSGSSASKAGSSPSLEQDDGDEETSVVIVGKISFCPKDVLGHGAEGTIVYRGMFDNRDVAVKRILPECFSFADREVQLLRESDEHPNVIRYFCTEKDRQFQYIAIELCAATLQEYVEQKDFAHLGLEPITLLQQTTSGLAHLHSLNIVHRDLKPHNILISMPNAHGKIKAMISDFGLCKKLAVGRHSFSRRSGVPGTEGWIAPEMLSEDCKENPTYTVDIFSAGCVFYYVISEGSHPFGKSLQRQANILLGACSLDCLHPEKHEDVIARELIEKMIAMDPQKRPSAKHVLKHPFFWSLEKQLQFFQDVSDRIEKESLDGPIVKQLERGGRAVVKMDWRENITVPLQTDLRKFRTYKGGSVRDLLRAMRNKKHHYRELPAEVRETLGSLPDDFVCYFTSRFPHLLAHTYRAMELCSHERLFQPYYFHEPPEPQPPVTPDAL

Regarding `CC(C)C[C@H](NC(=O)[C@H](Cc1ccccc1)NC(=O)c1cnccn1)B(O)O` [bortezomib, [(1R)-3-methyl-1-[[(2S)-1-oxo-3-phenyl-2-[(pyrazinylcarbonyl)amino]propyl]amino]butyl]boronic acid], the tumor growth result in assay [1] is “suppression of tumor growth”.

On to tunicamycin, for which, in assay [2], the “induction of XBP-1 spliced (XBP-1s)” value is “induces XBP-1 spliced (XBP-1s)”.

On to `C/C=C(/C)C(=O)O[C@H]1C(C)=C2[C@H]([C@@H]1OC(=O)CCCCCCC)[C@@](C)(OC(C)=O)C[C@H](OC(=O)CCC)[C@@]1(O)[C@H]2OC(=O)[C@@]1(C)O` [Thapsigargin], for which the “induction of XBP-1s” value in assay [3] was “near complete conversion of XBP-1u to XBP-1s”.

The term IC50 denotes the point on the concentration scale where inhibition reaches its midpoint. In turn, `CCNC(=O)CCc1c(C)c2cc(OC)c(O)c(C=O)c2oc1=O` [Example 174] had an IC50 in assay [4] below 0.1 µM. In assay [5], the EC50 is below 10 µM.

The compound `O=Cc1c(O)ccc2nc(SCC(=O)O)[nH]c12` [Example 63] showed an IC50 in assay [4] below 0.1 µM. The EC50 in assay [5] was above 10 µM.

The values above are taken from US9040714B2 (MannKind Corporation, priority 2010, dated 2015).
